Patent publication US20240415801A1, “Methods and Compositions for Treating Fibroids” (Lundquist Institute for Biomedical Innovation at …, priority 2023, published 2024)

Key:
human fibroid xenograft = assay: Human fibroid xenograft mouse model, tumor weight (Example 1); type: in vivo, ovariectomized CB-17 SCID/Beige mice; details: 20 mg/kg daily i.p., two months (8 weeks), vs matched vehicle
Description: Portions of intramural uterine fibroids (2-5 cm diameter) were obtained from hysterectomies performed at Harbor-UCLA Medical Center for symptomatic fibroids (n=10). Prior approval was secured from the Institutional Review Board (18CR-31752-01 R) at the Lundquist Institute. Tissues were exclusively sourced from premenopausal patients who had not been treated with hormonal medications for at least 3 months before surgery. The fibroids used in this study were sourced from African American (n=2) and Hispanic (n=8) women aged between 35-50 years (mean 43±4.8 years). The MED12 mutation status of all fibroids was determined by PCR amplification and Sanger sequencing (Laragen Inc., Culver City, CA, USA). […] Informed consent was obtained from all participants. A segment of each tumor was allocated for in vivo studies, and the remaining tissues were promptly snap-frozen and stored in liquid nitrogen for further analysis as previously described. This selection process for tumors was aimed at minimizing variance among fibroids.

[1] = Blood chemistry panel (Example 1); type: in vivo, SCID/Beige mice; details: 20 mg/kg daily i.p.
Method: After 8 weeks of treatment with either the vehicle or Bay, plasma chemistry was analyzed. Specifically, 100 μL of plasma was transferred into the Comprehensive Diagnostic Profile Rotor (#500-1038, Abaxis, Union City, CA, USA). Subsequently, the levels of glucose, creatinine, BUN, phosphorus, sodium, albumin, alkaline phosphatase, serum glutamic pyruvic transaminase (SGPT; ALT), total protein, globulin, total bilirubin, and amylase were assessed using the VetScan VS2 chemistry analyzer (Abaxis, Union City, CA, USA) as previously described.

fibroid xenografts [2] = assay: Quantitative RT-PCR of fibroid xenografts (Example 1); type: in vivo, SCID/Beige mice; details: 20 mg/kg daily, 8 weeks
Method: Quantitative RT-PCR was performed as previously described. Selected gene expression levels were assessed utilizing the Invitrogen StepOne System, with normalization against 18S. Triplicate reactions were conducted, and relative mRNA expression was calculated using the comparative cycle threshold method (2−ΔΔCt), with results presented as fold change relative to the control group. The primer sequences used are shown in the following Sequence Table: […]

fibroid xenografts [3] = assay: Immunohistochemistry and Masson's trichrome staining of xenografts (Example 1); type: in vivo, SCID/Beige mice
Method: Tissues were fixed in 4% paraformaldehyde and subsequently embedded in paraffin, and 5-micron sections were cut and mounted onto glass slides. Staining procedures, including Masson's trichrome stain (HT15-1 KT, Sigma-Aldrich), and immunohistochemistry, were conducted as previously described. Primary antibodies utilized in this study included rabbit anti-Ki67 (dilution 1:250, 27309-1-AP, Proteintech Group, Inc, Rosemont, IL, USA), rabbit anti-cleaved caspase-3 (dilution 1:50, #9664, Cell Signaling Technology, Danvers, MA, USA), rabbit anti-CCND1 (dilution 1:50, #55506, Cell Signaling Technology), and mouse anti-E2F1 (dilution 1:50, sc-251, Santa Cruz Biotechnology, Inc., Dallas, TX, USA).

[4] = Safety test, plasma chemistry panel (Example 2); type: in vivo, SCID/Beige mice; details: 5 mg/kg i.p.
Method: In order to determine if Bay 11-7082 administration was safe, the plasma collected from the mice was tested after 8 weeks of treatment with vehicle or Bay 11-7082. The plasma (100 μL) was pipetted into the Comprehensive Diagnostic Profile Rotor (#500-1038, Abaxis, Union City, CA, USA) and the values of glucose, creatinine, BUN, phosphorus, sodium, albumin, alkaline phosphatase, serum glutamic pyruvic transaminase (SGPT; ALT), total protein, globulin, total bilirubin and amylase were analyzed using VetScan VS2 chemistry analyzer (Abaxis, Union City, CA, USA).

fibroid xenografts [5] = assay: Histology and immunohistochemistry of xenografts (Example 2); type: in vivo, SCID/Beige mice; details: 5 mg/kg, 8 weeks
Description: After fixation with 4% paraformaldehyde and routine dehydration, a portion of xenograft samples were embedded in paraffin. To evaluate histologic characteristics, 5-μm-thick paraffin sections of xenografts were stained with hematoxylin and eosin (H-3502, Vector Laboratories, Inc.) and Masson's trichrome stain (HT15-1 KT, Sigma-Aldrich) according to the manufacturer's instructions.
For Immunohistochemistry, the xenografts were fixed with 4% paraformaldehyde in PBS, and subsequently transferred to PBS containing 30% sucrose (wt/vol) until equilibrated in cold (4° C.). After fixation, 5-μm-thick paraffin sections were treated three times with Histo-Clear™ (National Diagnostics, Atlanta, GA) for 5 min, and rehydrated by a sequential ethanol wash, and then incubated in target retrieval solution (Dako, Carpinteria, CA) in a microwave for 10 min in order to retrieve the antigens. For blocking, tissues were incubated for 10 minutes with 3% solution of H2O2 followed by incubation with PBS-5% normal goat serum-0.2% Triton X-100. Tissue sections were incubated with primary antibody rabbit anti-Ki67 (dilution 1:250, 27309-1-AP, Proteintech Group, Inc), rabbit anti-cleaved caspase-3 (dilution 1:50, #9664, Cell Signaling Technology), rabbit anti-CCND1 (dilution 1:50, #55506, Cell Signaling Technology) and mouse anti-E2F1 (dilution 1:50, sc-251, Santa Cruz Biotechnology, Inc.) overnight at 4° C. in a humidified chamber. The antigens were then visualized using biotinylated antibodies and streptavidin, conjugated with horseradish peroxidase. Control sections were incubated with the secondary antibody, with replacement of primary antibody with the dilution reagent (Dako). Diaminobenzidine (Dako) which served as the substrate. […] Immunostained sections were examined under a microscope (Olympus IX83; Olympus Surgical Technologies America) and five representative images of each slide were quantitatively analyzed with the use of Halo software (Indica Labs Inc.) and were averaged for comparative analysis between vehicle and […] treatment groups in a blinded fashion.

Structure (SMILES): Cc1ccc(S(=O)(=O)/C=C/C#N)cc1 [Bay 11-7082]
- reduction of tumor weight (human fibroid xenograft): 50%
- changes in blood chemistry including liver, kidney and pancreatic function ([1]; 8 weeks): no changes
- Albumin (mean ± SEM) ([1]; plasma after 8 weeks): 3.5 ± 0.14 g/dL
- Alkaline phosphatase (mean ± SEM) ([1]; plasma after 8 weeks): 91.9 ± 20.05 U/l
- Amylase (mean ± SEM) ([1]; plasma after 8 weeks): 643.0 ± 36.82 U/l
- BUN (mean ± SEM) ([1]; plasma after 8 weeks): 27.1 ± 5.75 mg/dL
- Creatinine (mean ± SEM) ([1]; plasma after 8 weeks): 0.4 ± 0.03 mg/dL
- Globulin (mean ± SEM) ([1]; plasma after 8 weeks): 1.1 ± 0.24 g/dL
- Glucose (mean ± SEM) ([1]; plasma after 8 weeks): 261.0 ± 14.63 mg/dL
- Phosphorus (mean ± SEM) ([1]; plasma after 8 weeks): 10.1 ± 0.53 mg/dL
- SGPT (ALT) (mean ± SEM) ([1]; plasma after 8 weeks): 54.5 ± 8.71 U/l
- Sodium (mean ± SEM) ([1]; plasma after 8 weeks): 155.3 ± 1.35 mEq/l
- Total bilirubin (mean ± SEM) ([1]; plasma after 8 weeks): 0.3 ± 0.04 mg/dL
- Total protein (mean ± SEM) ([1]; plasma after 8 weeks): 4.6 ± 0.16 g/dL
- expression of miR-29c and miR-200c (fibroid xenografts [2]): significant increase
- mRNA expression of SPARC, TDO2, MYD88, TLR6, TLR3, IL6, TNFα, TNFRSF11A, IL1β, COL3A1, FN1, LOX, TGFB3, CCND1, E2F1, CKS2, PRL, ESR1, PGR, VEGFC, PDGFA, HTR1B (fibroid xenografts [2]; n=10): significant decrease
- expression of cell cycle markers CCND1 and E2F1 (IHC) (fibroid xenografts [3]; 20 mg/kg daily, 8 weeks): decreased expression
- expression of collagens (Masson's trichrome staining) (fibroid xenografts [3]; 20 mg/kg daily, 8 weeks): significant decrease
- expression of proliferation marker Ki67 (IHC) (fibroid xenografts [3]; 20 mg/kg daily, 8 weeks): significant reduction
- smooth muscle content (Masson's trichrome staining) (fibroid xenografts [3]; 20 mg/kg daily, 8 weeks): no significant differences
- Cleaved caspase 3 staining (IHC) (fibroid xenografts [3]; drug versus vehicle): no significant difference
- adverse effects in blood plasma chemistry panel (glucose, kidney function, electrolytes, liver function, pancreatic amylase) ([4]; 8 weeks): no adverse effects
- Albumin (mean ± SEM) ([4]; plasma after 8 weeks): 3.5 ± 0.14 g/dL
- Alkaline phosphatase (mean ± SEM) ([4]; plasma after 8 weeks): 91.9 ± 20.05 U/l
- Amylase (mean ± SEM) ([4]; plasma after 8 weeks): 643.0 ± 36.82 U/l
- BUN (mean ± SEM) ([4]; plasma after 8 weeks): 27.1 ± 5.75 mg/dL
- Creatinine (mean ± SEM) ([4]; plasma after 8 weeks): 0.4 ± 0.03 mg/dL
- Globulin (mean ± SEM) ([4]; plasma after 8 weeks): 1.1 ± 0.24 g/dL
- Glucose (mean ± SEM) ([4]; plasma after 8 weeks): 261.0 ± 14.63 mg/dL
- Phosphorus (mean ± SEM) ([4]; plasma after 8 weeks): 10.1 ± 0.53 mg/dL
- SGPT (ALT) (mean ± SEM) ([4]; plasma after 8 weeks): 54.5 ± 8.71 U/l
- Sodium (mean ± SEM) ([4]; plasma after 8 weeks): 155.3 ± 1.35 mEq/l
- Total bilirubin (mean ± SEM) ([4]; plasma after 8 weeks): 0.3 ± 0.04 mg/dL
- Total protein (mean ± SEM) ([4]; plasma after 8 weeks): 4.6 ± 0.16 g/dL
- cell proliferation: nuclei staining for Ki67, CCND1 and E2F1 (fibroid xenografts [5]): reduced number of nuclei staining
- staining for collagen (Masson's trichrome, blue stain) (fibroid xenografts [5]): significant decrease
- staining of cleaved caspase 3 (apoptosis) (fibroid xenografts [5]): no significant change
